Entries after “also recorded” stand apart in the source; their conditions may differ. Where two headings read alike, the source gives them in different places.
What was measured:
[1] = Systemic toxicity, repeated i.p. injection in mice; format: in vivo; details: for Dose with morbidity but no mortality / Dose given without mortality or morbidity: i.p. every 2nd day; for Dose given without mortality or morbidity: 5 times
Procedure: Systemic toxicity was orientationally evaluated by i.p. injection every 2nd day in mice. […] For BP-34, the corresponding values were 150 mg/kg bw and 300 mg/kg bw.
The maximum tolerated dose should thus be approximately 300 mg/kg. For BP-34, i.p. injections of 100-300 mg/kg produce no mortalities in mice. […] Therefore, the maximum tolerated dose of BP-34 should be approximately 250 mg/kg.

androgen receptor = molecular target: T1, androgen receptor (Homo sapiens, UniProt P10275, T878A); test: Androgen receptor remaining in LNCaP cell lysate, Western Blot; format: cell-based; details: for Percent Androgen Receptor Remaining / Percent of the androgen receptor remaining / Effect on the AR: LNCaP; for Percent Androgen Receptor Remaining: Table 7 controls, incubation time not given; for Percent of the androgen receptor remaining: 48 hours; for Effect on the AR: Western Blot; for Suppression of the AR: 3 μM concentration; for Elimination of the AR: 10 μM concentration
T1 construct: endogenous in cells; host or cells: LNCaP human prostate cancer cells
T1 sequence (P10275 whole entry T878A): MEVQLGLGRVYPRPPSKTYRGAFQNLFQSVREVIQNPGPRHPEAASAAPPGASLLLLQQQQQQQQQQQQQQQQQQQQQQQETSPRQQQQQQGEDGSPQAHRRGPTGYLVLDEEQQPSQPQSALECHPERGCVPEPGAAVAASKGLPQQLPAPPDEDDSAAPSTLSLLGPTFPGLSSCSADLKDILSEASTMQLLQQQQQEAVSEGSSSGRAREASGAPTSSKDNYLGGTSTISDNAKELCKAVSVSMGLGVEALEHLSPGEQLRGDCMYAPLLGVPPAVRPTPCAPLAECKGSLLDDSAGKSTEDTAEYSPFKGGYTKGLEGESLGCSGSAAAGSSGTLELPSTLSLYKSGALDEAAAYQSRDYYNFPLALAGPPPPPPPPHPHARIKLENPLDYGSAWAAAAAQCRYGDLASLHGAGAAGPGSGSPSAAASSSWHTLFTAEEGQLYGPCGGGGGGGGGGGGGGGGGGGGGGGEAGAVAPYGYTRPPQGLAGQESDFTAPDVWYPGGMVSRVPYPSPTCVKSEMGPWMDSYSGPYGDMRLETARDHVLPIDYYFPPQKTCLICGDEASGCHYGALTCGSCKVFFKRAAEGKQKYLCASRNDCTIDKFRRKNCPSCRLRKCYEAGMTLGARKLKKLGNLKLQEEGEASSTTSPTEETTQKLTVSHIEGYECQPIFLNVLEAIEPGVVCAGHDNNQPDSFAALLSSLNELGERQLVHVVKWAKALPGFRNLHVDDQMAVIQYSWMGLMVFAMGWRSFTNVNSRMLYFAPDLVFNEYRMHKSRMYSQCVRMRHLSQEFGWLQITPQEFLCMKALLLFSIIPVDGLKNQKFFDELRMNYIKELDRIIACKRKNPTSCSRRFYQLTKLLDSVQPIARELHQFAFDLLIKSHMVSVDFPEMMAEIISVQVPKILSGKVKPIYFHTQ
Procedure: The interaction of the compounds with AR was studied by incubation with LNCaP cells, subsequent cell lysis and the standard Western Blot assay.

[2] = system: human prostate cancer cells LNCaP; test: XXT cell viability assay, 72 hours; format: cell-based
Procedure: After 72 hours, an XXT assay (Scudievo, et al., Cancer Research, 48:4827 (1988)) indicating cell viability was carried out.

[3] = system: prostate and seminal vesicles; test: Weight of prostate and seminal vesicles (secondary sex organs) in rats; format: in vivo; details: for Reduction of secondary sex organs' weight: castrated rats supplemented with testosterone propionate
Procedure: (The dose of 0.1 mg/kg approximates the expected topical daily dose for humans).

[4] = Procedure: Compounds were tested for stability in human serum at 38° C. They were dissolved in isopropanol/H2O (95:5), mixed with human serum to a concentration of 0.5 mg/mL, and incubated at 38° C. Serum aliquots were extracted with ethyl acetate and analyzed by HPLC.
(Permadi, H.; Lundgren, B.; Andersson, K.; Sundberg, C.; DePierre, J. W. Effects of perfluoro fatty acids on peroxisome proliferation and mitochondrial size in mouse liver: dose and time factors and effect of chain length. Xenobiotica, 91993) Vol. 23, No. 7, pp.761-70).

[5] = isopropanol/H2O (95:5), 50° C., up to six days
Remark: listed apart in the source
[6] = i.m., 75 mg/kg bw
[7] = rabbits, 2× daily 0.5 mL of 10% solution in 50/50 PEG 400/EtOH, shaved skin 20 cm^2; HPLC sensitivity 5 nanograms
androgenic alopecia = details: three male volunteers, 1% solution in ethanol
[8] = not given; remark: listed apart in the source
[9] = Takagi et al. 1991; cited from earlier work
[10] = Tissue distribution 4 hours after intravenous injection in male rats; details: 300 g male rats, after 4 hours
[11] = Cockshott et al. 1990; cited from earlier work
[12] = Rabbit, skin 20 cm^2, 100 mg/d, 10 d

CC(O)(CN)C(=O)Nc1ccc([N+](=O)[O-])c(C(F)(F)F)c1 (stereo not shown) [BP-34, 4-nitro-3-trifluoromethyl-N-(2-hydroxy-2-methyl-3-aminopropionyl)aniline]
Dose with morbidity, but not mortality ([1]; i.p.): 300 mg/kg
i.p. doses producing no mortalities ([1]; i.p.): 100 to 300 mg/kg
Dose with morbidity but no mortality [1]: 300 mg/kg bw
Dose given without mortality or morbidity [1]: 150 mg/kg bw
MTD ([1]; mouse, in vivo, ip, read-out: Maximum tolerated dose): ~250 mg/kg
Percent Androgen Receptor Remaining (androgen receptor; 3μ Molar conc): 97%
Percent of the androgen receptor remaining (androgen receptor; 3μ Molar conc.): 97%
Percent Androgen Receptor Remaining (androgen receptor; 10μ Molar conc): 98%
Percent of the androgen receptor remaining (androgen receptor; 10μ Molar conc.): 98%
Effect on the AR (androgen receptor): no effect
Effect on the LNCaP cells [2]: no effect

CC(O)(CNC(=S)Nc1ccc(Br)cc1)C(=O)Nc1ccc([N+](=O)[O-])c(C(F)(F)F)c1 (stereo not shown) [BP-668, 3-((((4-bromophenyl)amino)thioxomethyl)amino)-2-hydroxy-2-methyl-N-(4-nitro-3-(trifluoromethyl)phenyl)propanamide]
Reduction of secondary sex organs' weight ([3]; 0.1 mg/kg): did not reduce
Percent of the intact compound remaining in human serum ([4]; 38° C., 0.5 mg/mL, 24 h): 100%
Percent of the intact compound remaining in human serum ([4]; 38° C., 0.5 mg/mL, 48 h): 100%
Percent of the intact compound remaining in human serum ([4]; 38° C., 0.5 mg/mL, 6 d): 100%
Change via HPLC in accelerated stability study [5]: no change was observed
melting point: 192 to 195 °C
Suppression of the AR (androgen receptor): important suppression
Elimination of the AR (androgen receptor): practically eliminated the AR
Percent of the androgen receptor remaining (androgen receptor; 3μ Molar conc.): 73%
Percent of the androgen receptor remaining (androgen receptor; 10μ Molar conc.): 0%

CC(O)(CNCC(C)(O)C(=O)Nc1ccc(Cl)cc1)C(=O)Nc1ccc(Cl)cc1 (stereo not shown)
melting point: 76 to 78 °C

CC(O)(CNCC(C)(O)C(=O)Nc1ccc([N+](=O)[O-])c(C(F)(F)F)c1)C(=O)Nc1ccc([N+](=O)[O-])c(C(F)(F)F)c1 (stereo not shown) [BP-673, 2-hydroxy-3-((2-hydroxy-2-(N-(4-nitro-3-(trifluoromethyl)phenyl)carbamoyl)propyl)amino)-2-methyl-N-(4-nitro-3-(trifluoromethyl)phenyl)propionamide]
Percent of the intact compound remaining in human serum ([4]; 38° C., 0.5 mg/mL, 24 h): 100%
Percent of the intact compound remaining in human serum ([4]; 38° C., 0.5 mg/mL, 48 h): 100%
Percent of the intact compound remaining in human serum ([4]; 38° C., 0.5 mg/mL, 6 d): 100%
Change via HPLC in accelerated stability study [5]: no change was observed
Suppression of the AR (androgen receptor): important suppression
Elimination of the AR (androgen receptor): practically eliminated the AR
Percent of the androgen receptor remaining (androgen receptor; 3μ Molar conc.): 74%
Percent of the androgen receptor remaining (androgen receptor; 10μ Molar conc.): 3%

CC(O)(CNCCOCCOCCNCC(C)(O)C(=O)Nc1ccc([N+](=O)[O-])c(C(F)(F)F)c1)C(=O)Nc1ccc([N+](=O)[O-])c(C(F)(F)F)c1 (stereo not shown) [BP-676]
Percent of the androgen receptor remaining (androgen receptor; 3μ Molar conc.): 64%
Percent of the androgen receptor remaining (androgen receptor; 10μ Molar conc.): 20%

CC(O)(CNC(=O)Nc1ccc(I)cc1)C(=O)Nc1ccc([N+](=O)[O-])c(C(F)(F)F)c1 (stereo not shown) [BP-754]
Percent of the androgen receptor remaining (androgen receptor; 3μ Molar conc.): 28%
Percent of the androgen receptor remaining (androgen receptor; 10μ Molar conc.): 14%

CC(O)(CNC(=O)C(F)(F)C(F)(F)C(F)(F)F)C(=O)Nc1ccc([N+](=O)[O-])c(C(F)(F)F)c1 (stereo not shown) [BP-521, 4-nitro-3-trifluoromethyl-N-(2′-hydroxy-2′-methyl-3′-N-(heptafluorobutyramido)propionyl)aniline]
Reduction of secondary sex organs' weight ([3]; 0.1 mg/kg): did not reduce
Reduction of average weight of prostate and seminal vesicles ([3]; intact rats, 10 times subcutaneously 100 mg/kg): about 46%
Percent of the intact compound remaining in human serum ([4]; human, serum, 6 h): 97.5%
Percent of the intact compound remaining in human serum ([4]; human, serum, 24 h): 90.0%
Percent of the intact compound remaining in human serum ([4]; human, serum, 48 h): 84.0%
Percent of the intact compound remaining in human serum ([4]; human, serum, 144 h): 60.0%
μg/ml blood ([6]; Rat ~140 g, 0.5 hrs): 0.7 µg/mL
Cumulative % dose ([6]; Rat): 2.9%
Cumulative mg/total blood volume ([6]; Rat): 2.1 µg
μg/ml blood ([6]; Rat, 1.0 hrs): 4.7 µg/mL
μg/ml blood ([6]; Rat, 1.5 hrs): 2.2 µg/mL
μg/ml blood ([6]; Rat, 24 hrs): 1.0 µg/mL
Topical absorption [7]: No absorption was found
Effect on incipient androgenic alopecia of the forehead line (androgenic alopecia; 0.5 mL twice daily on scalp): effectively arrested incipient androgenic alopecia
Hair growth (androgenic alopecia; 0.5 mL twice daily, after 8 weeks): induced copious growth of vellum hair
μg/ml blood ([8]; Rabbit ~3 kg, i.p., 150 mg/kg bw, 0.5 hrs): 1.9 µg/mL
μg/ml blood ([8]; Rabbit ~3 kg, oral, 100 mg/kg bw, 0.5 hrs): 1.5 µg/mL
μg/ml blood ([8]; Rabbit ~3 kg, skin 20 cm^2, 100 mg/d, 10 d, 0.5 hrs): 0 µg/mL
Cumulative % dose ([8]; Rabbit, i.p., 150 mg/kg bw): 2.8%
Cumulative mg/total blood volume ([8]; Rabbit, i.p., 150 mg/kg bw): 11.6 µg
μg/ml blood ([8]; Rabbit, i.p., 150 mg/kg bw, 1.0 hrs): 3.2 µg/mL
μg/ml blood ([8]; Rabbit, i.p., 150 mg/kg bw, 1.5 hrs): 1.9 µg/mL
μg/ml blood ([8]; Rabbit, i.p., 150 mg/kg bw, 2.5 hrs): 1.5 µg/mL
μg/ml blood ([8]; Rabbit, i.p., 150 mg/kg bw, 7.0 hrs): 3.0 µg/mL
μg/ml blood ([8]; Rabbit, i.p., 150 mg/kg bw, 24 hrs): 2.2 µg/mL
Cumulative % dose ([8]; Rabbit, oral, 100 mg/kg bw): 1.50%
Cumulative mg/total blood volume ([8]; Rabbit, oral, 100 mg/kg bw): 3.0 µg
μg/ml blood ([8]; Rabbit, oral, 100 mg/kg bw, 1.0 hrs): 1.7 µg/mL
μg/ml blood ([8]; Rabbit, oral, 100 mg/kg bw, 1.5 hrs): 2.6 µg/mL
μg/ml blood ([8]; Rabbit, oral, 100 mg/kg bw, 2.5 hrs): 1.5 µg/mL
μg/ml blood ([8]; Rabbit, oral, 100 mg/kg bw, 7.0 hrs): 1.0 µg/mL
μg/ml blood ([8]; Rabbit, oral, 100 mg/kg bw, 24 hrs): 1.0 µg/mL
Cumulative % dose [8, 12]: 0%
Cumulative mg/total blood volume [8, 12]: 0 µg
μg/ml blood ([8]; Rabbit, skin 20 cm^2, 100 mg/d, 10 d, 1.0 hrs): 0 µg/mL
μg/ml blood ([8]; Rabbit, skin 20 cm^2, 100 mg/d, 10 d, 1.5 hrs): 0 µg/mL
μg/ml blood ([8]; Rabbit, skin 20 cm^2, 100 mg/d, 10 d, 2.5 hrs): 0 µg/mL
μg/ml blood ([8]; Rabbit, skin 20 cm^2, 100 mg/d, 10 d, 7.0 hrs): 0 µg/mL
μg/ml blood ([8]; Rabbit, skin 20 cm^2, 100 mg/d, 10 d, 24 hrs): 0 µg/mL
Bioavailability ([8]; from the subcutaneous, muscle and intraperitoneal spaces): low
Peak serum levels as % of the injected dose ([8]; oral test): 0.0052%
Dose with morbidity but no mortality [1]: 350 mg/kg bw
Dose given without mortality or morbidity [1]: 200 mg/kg bw

O=C(O)C(F)(F)C(F)(F)C(F)(F)F [perfluorobutyric acid]
Toxicity [9]: low toxicity

CCCNC(=S)Nc1ccc(C#N)c(C(F)(F)F)c1 [BP-735, N-(3-trifluoromethyl-4-cyanophenyl), N′-propyl thiourea]
Suppression of the AR (androgen receptor): important suppression
Elimination of the AR (androgen receptor): practically eliminated the AR
Percent of the androgen receptor remaining (androgen receptor; 3μ Molar conc.): 45%
Percent of the androgen receptor remaining (androgen receptor; 10μ Molar conc.): 1%

CC(C)(O)C(=O)Nc1ccc([N+](=O)[O-])c(C(F)(F)F)c1 [Hydroxyflutamide, reference compound]
Percent Androgen Receptor Remaining (androgen receptor; 3μ Molar conc): 98%
Percent of the androgen receptor remaining (androgen receptor; 3μ Molar conc.): 98%
Percent Androgen Receptor Remaining (androgen receptor; 10μ Molar conc): 94%
Percent of the androgen receptor remaining (androgen receptor; 10μ Molar conc.): 94%
Effect on the AR (androgen receptor): have not shown any significant effect on the AR; also recorded: have not shown any significant suppression of the AR

CC(O)(CSCC=C([125I])[125I])C(=O)Nc1ccc(C#N)c(C(F)(F)F)c1 (stereo not shown) [BP-554]
Accumulation in the prostate vis-a-vis other tissues [10]: substantial accumulation in the prostate

CC(O)(COC/C=C/[125I])C(=O)Nc1ccc(C#N)c(C(F)(F)F)c1 (stereo not shown) [BP-636]
Accumulation in the prostate vis-a-vis other tissues [10]: substantial accumulation in the prostate

CC(O)(CS(=O)(=O)c1ccc(F)cc1)C(=O)Nc1ccc(C#N)c(C(F)(F)F)c1 (stereo not shown) [Bicalutamide, reference compound]
Reduction of secondary sex organs' weight ([3]; 0.5 mg/kg): about 20%
Peak serum levels as % of the dose, reported [11]: 0.03%

— patent US6472415B1, “Androgen receptor suppressors in the therapy and diagnosis of prostate cancer, alopecia and other hyper-androgenic syndromes” (priority 1998, dated 2002)
